# Like-named read-outs stand apart in the source and are kept apart here.
# Experiments:
# Wee1 kinase domain = target: T1, Wee1 kinase domain (Homo sapiens, UniProt P30291); assay: Wee1 Kinase Biochemical Assay (ADP-Glo); conditions: 15 uM ATP
# T1 construct: Wee1 kinase domain was purchased from Carna (catalog #05-177); purchased Carna 05-177
# Summary of the method: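 Compounds tested against 1 nM Wee1 kinase domain in Tris buffer containing 20 mM MgCl2, BSA and 2 mM DTT, with 15 uM ATP and poly(Lys,Tyr) substrate for 4 h at 25 °C. Luminescent ADP detection gave percent inhibition, normalized to DMSO and saturating inhibitor.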
# [1] = tested on: phosphorylation of Cdc2 Y15 (Wee1 substrate) in A427 cells; assay: Phosphorylated Cdc2 MSD Electrochemiluminescence Assay; type: cell-based; conditions: Homo sapiens
# Summary of the method: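 Read-out: percent residual phospho-Cdc2 Y15 relative to DMSO and positive-control Wee1 inhibitor, measured by MSD electrochemiluminescence capture/detection antibody assay in cell lysates. A427 cells received duplicate 3-fold compound dilution series 20 h post-seeding, with 6 h total incubation at 37 °C.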
# [2] = class symbols, 1 nM Wee1 enzyme, 4 hours at 25° C.
# [3] = A-427, class symbols, read-out: A427 pCDC2 MSD IC50
# T1 sequence (P30291 299-569 limits assumed): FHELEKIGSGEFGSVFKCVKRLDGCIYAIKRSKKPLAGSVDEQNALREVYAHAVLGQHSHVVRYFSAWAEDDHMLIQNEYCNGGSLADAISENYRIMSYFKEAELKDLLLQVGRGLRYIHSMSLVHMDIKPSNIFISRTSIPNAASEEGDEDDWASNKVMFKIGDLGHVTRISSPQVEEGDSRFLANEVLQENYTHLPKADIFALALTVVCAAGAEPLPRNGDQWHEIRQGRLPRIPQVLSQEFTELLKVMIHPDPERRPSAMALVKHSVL
Compound,"IC50 (Wee1 kinase domain; Wee1 kinase domain, ADP-Glo) [nM]","IC50 ([1]; A-427, pCDC2 MSD) [nM]",IC50 (Wee1 kinase domain; [2]) [nM],"IC50 [1, 3] [nM]"
"Cc1cc(Nc2ncc3c(n2)N(c2cccc(N=S(C)(C)=O)n2)[C@@H]2CC(C)(C)OC[C@]32C)ccc1[C@@H]1COCCN1 (single isomer, unassigned) [Example 114]",< 10,< 100,,
"CN(C)C(=O)c1ccc(Nc2ncc3c(n2)N(c2cccc(N=S(C)(C)=O)n2)[C@@H]2CC(C)(C)OC[C@]32C)cc1 (single isomer, unassigned) [Example 141]",< 10,< 100,,
"C[C@H]1COC(=O)N1c1cccc(N2c3nc(Nc4ccc(N5CCN(C)CC5)cc4)ncc3[C@]3(C)COC(C)(C)C[C@H]23)n1 (single isomer, unassigned) [Example 235]",< 10,100 to 1000,,
"CC1(C)C[C@H]2N(c3cccc(N=S(C)(C)=O)n3)c3nc(Nc4ccc(C5CNC5)c(F)c4)ncc3[C@@]2(C)CO1 (single isomer, unassigned) [Example 183]",< 10,100 to 1000,,
"CN1CCC[C@H]1c1ccc(Nc2ncc3c(n2)N(c2cccc(N=S(C)(C)=O)n2)[C@@H]2CC(C)(C)OC[C@]32C)cc1 (single isomer, unassigned) [Example 126]",< 10,< 100,,
"C[C@H]1COC(=O)N1c1cccc(N2c3nc(Nc4ccc(O[C@H]5CCN(C)C5)nc4)ncc3[C@@]3(C)COC(C)(C)C[C@@H]23)n1 (single isomer, unassigned) [Example 281]",< 10,100 to 1000,,
"C[C@H]1COC(=O)N1c1cccc(N2c3nc(Nc4ccc([C@H]5CCN(C)C5)nc4)ncc3[C@]3(C)COC(C)(C)C[C@H]23)n1 (single isomer, unassigned) [Example 262]",100 to 1000,100 to 1000,,
"CC1(C)C[C@H]2N(c3cccc(N=S(C)(C)=O)n3)c3nc(Nc4ccc([C@@H]5CCCN5)nc4)ncc3[C@@]2(C)CO1 (single isomer, unassigned) [Example 214]",< 10,100 to 1000,,
"CNCc1cccc(N2c3nc(Nc4ccc(N5C6CCC5COC6)cc4)ncc3[C@]3(C)COC(C)(C)C[C@H]23)n1 (single isomer, unassigned) [Example 88]",< 10,100 to 1000,,
"CN1CC[C@@H](n2ccc(Nc3ncc4c(n3)N(c3cccc(N=S(C)(C)=O)n3)[C@@H]3CC(C)(C)OC[C@]43C)n2)C1 (single isomer, unassigned) [Example 227]",< 10,1000 to 10000,,
"CN1CC[C@@H](c2ccc(Nc3ncc4c(n3)N(c3cccc(N=S(C)(C)=O)n3)[C@@H]3CC(C)(C)OC[C@]43C)cc2)C1 (single isomer, unassigned) [Example 129]",< 10,< 100,,
"C[C@H]1COC(=O)N1c1cccc(N2c3nc(Nc4ccc([C@H]5CCN(C)C5)cc4)ncc3[C@@]3(C)COC(C)(C)C[C@@H]23)n1 (single isomer, unassigned) [Example 306]",< 10,100 to 1000,,
"CNCc1cccc(N2c3nc(Nc4ccc([C@@H]5CNC(=O)C5)cc4)ncc3[C@@]3(C)COC(C)(C)C[C@@H]23)n1 (single isomer, unassigned) [Example 63]",< 10,100 to 1000,,
"CNCc1cccc(N2c3nc(Nc4ccc([C@H]5CNC(=O)C5)cc4)ncc3[C@@]3(C)COC(C)(C)C[C@@H]23)n1 (single isomer, unassigned) [Example 61]",< 10,< 100,,
"Cc1cc(Nc2ncc3c(n2)N(c2cccc(N=S(C)(C)=O)n2)[C@@H]2CC(C)(C)OC[C@]32C)ccc1[C@@H]1CCNC1 (single isomer, unassigned) [Example 143]",< 10,100 to 1000,,
"C[C@H]1COC(=O)N1c1cccc(N2c3nc(Nc4ccc(O[C@@H]5CCNC5)nc4)ncc3[C@@]3(C)COC(C)(C)C[C@@H]23)n1 (single isomer, unassigned) [Example 287]",< 10,100 to 1000,,
"Cc1cc(Nc2ncc3c(n2)N(c2cccc(N4C(=O)OC[C@@H]4C)n2)[C@@H]2CC(C)(C)OC[C@]32C)ccc1N1C[C@H]2C[C@@H]1CN2C (single isomer, unassigned) [Example 289]",< 10,100 to 1000,,
"CN1CC[C@@](C)(c2ccc(Nc3ncc4c(n3)N(c3cccc(N=S(C)(C)=O)n3)[C@@H]3CC(C)(C)OC[C@]43C)cc2)C1 (single isomer, unassigned) [Example 169]",< 10,< 100,,
"C[C@H]1COC(=O)N1c1cccc(N2c3nc(Nc4ccc(C5CNC5)cc4)ncc3[C@@]3(C)COC(C)(C)C[C@@H]23)n1 (single isomer, unassigned) [Example 310]",< 10,100 to 1000,,

# Results, then the molecule that gave them:
"IC50 (Wee1 kinase domain; Wee1 kinase domain, ADP-Glo) [nM]","IC50 ([1]; A-427, pCDC2 MSD) [nM]",IC50 (Wee1 kinase domain; [2]) [nM],"IC50 [1, 3] [nM]",Compound
< 10,100 to 1000,,,"C[C@H]1COC(=O)N1c1cccc(N2c3nc(Nc4ccc(N5CC6(CN(C)C6)C5)cc4)ncc3[C@@]3(C)COC(C)(C)C[C@@H]23)n1 (single isomer, unassigned) [Example 355]"
,,< 10,100 to 1000,"CC1(C)C[C@H]2N(c3cccc(N=S(C)(C)=O)n3)c3nc(Nc4ccc(N5C[C@@H]6C[C@H]5CO6)cc4)ncc3[C@@]2(C)CO1 (single isomer, unassigned) [Example 497]"
,,< 10,100 to 1000,"CN1CCN(c2ccc(Nc3ncc4c(n3)N(c3cccc(P(C)(C)=O)n3)[C@@H]3CC(C)(C)OC[C@]43C)cc2)CC1 (single isomer, unassigned) [Example 753]"
,,< 10,100 to 1000,"CC1(C)C[C@H]2N(c3cccc(N4CCOC4=O)n3)c3nc(Nc4ccc(O[C@@H]5CCNC5)cc4)ncc3[C@@]2(C)CO1 [Example 622, 3-(6-((4bR,8aR)-4b,7,7-trimethyl-2-((4-(((R)-pyrrolidin-3-yl)oxy)phenyl)amino)-4b,7,8,8a-tetrahydropyrano[3′,4′:4,5]pyrrolo[2,3-d]pyrimidin-9(5H)-yl)pyridin-2-yl)oxazolidin-2-one]"
< 10,100 to 1000,,,"C[C@H]1COC(=O)N1c1cccc(N2c3nc(Nc4ccn(C)c(=O)c4)ncc3[C@@]3(C)COC(C)(C)C[C@@H]23)n1 (single isomer, unassigned) [Example 341]"
,,< 10,100 to 1000,"Cc1cc(Nc2ncc3c(n2)N(c2cccc([C@H]4CCCN4)n2)[C@@H]2CC(C)(C)OC[C@]32C)ccc1N1CCOCC1 (single isomer, unassigned) [Example 522]"
,,< 10,100 to 1000,"CN1CCN(c2ccc(Nc3ncc4c(n3)N(c3cccc(N5CCCC5=O)n3)[C@@H]3CC(C)(C)OC[C@]43C)cc2)CC1 (single isomer, unassigned) [Example 587]"
,,< 10,1000 to 10000,"CN1CCN(c2ccc(Nc3ncc4c(n3)N(c3ccn(C5COC5)n3)[C@@H]3CC(C)(C)OC[C@]43C)cc2)CC1 (single isomer, unassigned) [Example 742]"
,,< 10,100 to 1000,"Cn1cc(Nc2ncc3c(n2)N(c2cccc(N=S(C)(C)=O)n2)[C@@H]2CC(C)(C)OC[C@]32C)nn1 (single isomer, unassigned) [Example 514]"
,,< 10,100 to 1000,"CC1(C)C[C@H]2N(c3cccc(N=S(C)(C)=O)n3)c3nc(Nc4ccc5nccn5c4)ncc3[C@@]2(C)CO1 (single isomer, unassigned) [Example 504]"
< 10,100 to 1000,,,"CC1(C)C[C@H]2N(c3cccc(N=S(C)(C)=O)n3)c3nc(Nc4ccn([C@H]5CCOC5)c(=O)c4)ncc3[C@@]2(C)CO1 (single isomer, unassigned) [Example 376]"
,,< 10,100 to 1000,"CNCc1cccc(N2c3nc(Nc4ccc(N5CCN(C)CC5)c(C)c4)ncc3[C@@]3(C)COC(C)(C)C[C@@H]23)n1 (single isomer, unassigned) [Example 448]"
< 10,100 to 1000,,,"CNCc1ccc(Nc2ncc3c(n2)N(c2cccc(N4C(=O)OC[C@@H]4C)n2)[C@@H]2CC(C)(C)OC[C@]32C)cc1 (single isomer, unassigned) [Example 360]"
,,< 10,100 to 1000,"CC1(C)C[C@H]2N(c3ccc4c(n3)CCNC4)c3nc(Nc4ccc(N5CCOCC5)cc4)ncc3[C@@]2(C)CO1 (single isomer, unassigned) [Example 562]"
,,< 10,< 100,"CN[C@H](C)c1cccc(N2c3nc(Nc4ccc(N5CCOCC5)cc4)ncc3[C@@]3(C)COC(C)(C)C[C@@H]23)n1 (single isomer, unassigned) [Example 549]"
< 10,100 to 1000,,,"CC1(C)C[C@H]2N(c3cccc(N=S(C)(C)=O)n3)c3nc(NC(=O)[C@@H]4C[C@H]4c4ccccc4)ncc3[C@@]2(C)CO1 (single isomer, unassigned) [Example 396]"
< 10,1000 to 10000,,,"CNCc1cccc(N2c3nc(Nc4ccn([C@H]5CCOC5)c(=O)c4)ncc3[C@@]3(C)COC(C)(C)C[C@@H]23)n1 (single isomer, unassigned) [Example 389]"
,,< 10,100 to 1000,"CC1(C)C[C@H]2N(c3ccc4c(n3)[C@@](C)(N)CC4)c3nc(Nc4ccc(N5CCOCC5)cc4)ncc3[C@@]2(C)CO1 (single isomer, unassigned) [Example 565]"
< 10,100 to 1000,,,"[2H]C([2H])([2H])n1ccc(Nc2ncc3c(n2)N(c2cccc(N=S(C)(C)=O)n2)[C@@H]2CC(C)(C)OC[C@]32C)cc1=O (single isomer, unassigned) [Example 378]"
,,< 10,100 to 1000,"CN1CCC(c2ccc(Nc3ncc4c(n3)N(c3cccc(S(C)(=O)=O)n3)[C@@H]3CC(C)(C)OC[C@]43C)cc2)CC1 (single isomer, unassigned) [Example 757]"

# Source: patent US20260166039A1 (SCHRÖDINGER, INC., priority 2022, published 2026)
